Measured values published in ChEMBL document CHEMBL3397014, “The short way to chiral compounds with hexahydrofluoreno[9,1-bc]furan framework: synthesis and cytotoxic activity” (2015).

What was measured:
[1] = Cytotoxic activity against human CEM13 cells assessed as reduction in cell viability after 72 hrs by MTT assay; type: functional
[2] = Cytotoxic activity against human U937 cells assessed as reduction in cell viability after 72 hrs by MTT assay; type: functional, U-937
MT4 [3] = assay: Cytotoxic activity against human MT4 cells assessed as reduction in cell viability after 72 hrs by MTT assay; type: functional
MT4 [4] = assay: Induction of apoptosis in human MT4 cells at 0.9 uM after 24 hrs by propidium iodide staining based FACS flow cytometry (reference value: 2.3%); type: functional
MT4 [5] = assay: Induction of apoptosis in human MT4 cells at 0.9 uM after 48 hrs by propidium iodide staining based FACS flow cytometry (reference value: 3.5%); type: functional
MT4 [6] = assay: Induction of apoptosis in human MT4 cells at 0.9 uM after 72 hrs by propidium iodide staining based FACS flow cytometry (reference value: 5.5%); type: functional

With `COc1cc(OC)c2c(c1OC)C1C=C(C(C)C)C[C@H]3CO[C@@H]2[C@@]13C` (some centres undefined) as the molecule, how does the CTD50 [1] read?
Its CTD50 is 81.4 µM.

And the CTD50 [2]?
The CTD50 was 116.3 µM.

What about the CTD50 (MT4 [3]) of the same molecule?
The CTD50 was over 250 µM.

Which results are given for `CC(C)C1=CC2Oc3cc(O)ccc3[C@@H]3OC[C@H](C1)[C@]23C` (some centres undefined)?
CTD50 [1]: 111.9 µM; CTD50 [2]: 164.3 µM; CTD50 (MT4 [3]): 150.3 µM

For `COc1cc2c(c(OC)c1OC)C1C=C(C(C)C)C[C@H]3CO[C@@H]2[C@@]13C` (some centres undefined), which CTD50 [1] is on record?
The CTD50 was 49.4 µM.

And the CTD50 [2]?
The CTD50 was 66.9 µM.

And the CTD50 (MT4 [3])?
Its CTD50 is 200.6 µM.

Which CTD50 [1] does the source give for `COc1cc2c(cc1O)C1C=C(C(C)C)C[C@H]3CO[C@@H]2[C@@]13C` (some centres undefined) here?
Its CTD50 is 136.7 µM.

What about the CTD50 [2] of the same molecule?
The CTD50 was 210 µM.

And the CTD50 (MT4 [3])?
Its CTD50 is 150 µM.

Which results are given for `COc1cc2c(cc1O)[C@@H]1OC[C@@H]3CC(C(C)C)=CC2[C@@]31C` (some centres undefined)?
CTD50 [1]: 93.3 µM; CTD50 [2]: 50 µM; CTD50 (MT4 [3]): 0.93 µM; Activity (MT4 [4]): 12.8%; Activity (MT4 [5]): 16.3%; Activity (MT4 [6]): 27.7%

Which CTD50 [1] does the source give for `COc1cccc2c1C(=O)c1c(O)c3c(c(O)c1C2=O)C[C@@](O)(C(=O)CO)C[C@@H]3O[C@H]1C[C@H](N)[C@H](O)[C@H](C)O1` [DOXORUBICIN] here?
The CTD50 was 3.44 µM.

And the CTD50 [2]?
The CTD50 was 0.17 µM.

What about the CTD50 (MT4 [3]) of the same molecule?
Its CTD50 is 2.76 µM.

For `COc1cc2c(c(OC)c1O)C1C=C(C(C)C)C[C@H]3CO[C@@H]2[C@@]13C` (some centres undefined), which CTD50 [1] is on record?
The CTD50 was 157.6 µM.

And the CTD50 [2]?
The CTD50 was 136.4 µM.

And the CTD50 (MT4 [3])?
The CTD50 was 224.2 µM.
